Experimental findings from a melting point compilation (Tetko et al.; mined from patent text by program, amines drawn as free bases though some values may be those of a salt) are described below.

On to `CC1(C)OCc2cc(Cl)cc(C(O)c3cn(C(c4ccccc4)(c4ccccc4)c4ccccc4)cn3)c2O1` (stereo not given), for which the melting point was 120 °C. Turning to `O=C(NC(=O)c1ccccc1Cl)Nc1ccc(C=C(Br)Br)cc1`, the melting point was 190 °C.

The compound `CC(C)(C)c1cc(-c2nc3n(c2C#N)CCS3)cc(C(C)(C)C)c1O` registered a melting point of 207 to 208 °C. The compound `COc1cccc2cc(C(=O)N[C@@H](CC(N)=O)C(=O)N[C@@H](Cc3ccccc3)[C@H](O)C(=O)N3C[C@@H](Cl)C[C@H]3C(=O)NC(C)(C)C)oc12` yielded a melting point of 125 to 136 °C. `N#CCCc1oc(/C=C/c2ccccc2)nc1-c1ccccc1` displayed a melting point of 117 to 118 °C. With `CC(O)c1ccc(-c2ccc(S(C)(=O)=O)cc2)o1` (stereo not given) the figure was 118 to 120 °C. With `COc1ccc(C2(C=O)C=CC=CC2)cc1OCCCN1CCC(c2noc3cc(F)ccc23)CC1` (stereo not given) the figure was 140 to 141 °C. `Cc1nn(C)c2nc(-c3ccccc3)cc(O)c12` yielded a melting point of 262 to 264 °C.

`COc1ccc2c(c1)CCC(c1ccccc1)=C2c1ccccc1` displayed a melting point of 98 to 101 °C. As to `CC1(C)OCc2cc(Cl)cc(C(C)(O)c3cn(C(c4ccccc4)(c4ccccc4)c4ccccc4)cn3)c2O1` (stereo not given), the melting point is 182 to 184 °C.

Take `C=Cc1ccc(NN2C(=O)c3ccccc3C2=O)cc1`: the melting point was 174 to 176 °C.

Regarding `C=Cc1cc(-c2ccc(S(C)(=O)=O)cc2)n(CC2CCCCC2)n1`, the melting point lay in the range of 136 to 138 °C. `Cc1cccc(Cl)c1Nc1nc2ccc(-c3c(C)cccc3C)cc2n2cncc12` showed a melting point of 140 to 150 °C. Regarding `CCc1ccccc1OC(CC)C(=O)OC1CC(O)C=C2C=CC(C)C(CCC3CC(O)CC(=O)O3)C21` (mixture of isomers), the melting point lay in the range of 108 to 110 °C.

`O=C(c1ccc(F)cc1)C1CCN(CC(O)c2cc(Br)no2)CC1` (stereo not given) showed a melting point of 132 to 135 °C. In turn, `CCOC(=O)C(C)Oc1ncn(-c2ccccc2)n1` (stereo not given) yielded a melting point of 88 to 89 °C. The value for `O=C(c1ccccc1)c1ccc(OC(=O)C2CCCCC2)cc1` was 111 to 112 °C; that for `CC(C)Cn1c(CN)c(-c2ccccc2)c2cc(Br)ccc2c1=O` was 129 to 130 °C. In the case of `CN1CCN(C2=Nc3ccccc3S(=O)(=O)N2)CC1`, the melting point fell in the range of 265 to 267 °C. `COc1ccc(S(=O)(=O)Nc2nsc(-c3ccc(Cl)cc3)n2)cc1OC`: the melting point was 220 to 221 °C. With `CC(CC(C(O)CC(C)(C)O)N(C)C)C1CCC2C(O)CCCC12C` (stereo not given), the melting point lay in the range of 169 to 170 °C. Compound `CCC1=C(c2cccc(F)c2)C(=O)N(c2ccc(Cl)c(C(F)(F)F)c2)C1` had a melting point of 126 to 129 °C. Take `Cc1ccc2c(c1)C(C(=O)Nc1ccccc1C(C)C)c1ccccc1CO2` (stereo not given): the melting point was in the range of 180 to 181 °C. With `O=C(OCCc1ccccc1)c1ccc2cc(O)c(O)cc2c1` the figure was 175 to 176 °C; with `O=C(Nc1ccc(C(=O)N2CCCCc3sccc32)cc1)c1ccc(Cl)c(Cl)c1`, 154 to 160 °C; with `CC(C)C(=O)c1c(C(C)(C)C)cc(C=[N+]([O-])C(C)(C)C)cc1C(C)(C)C`, 197 to 208 °C.

In turn, `O=C1c2ccccc2C(O)N1CCCO[N+](=O)[O-]` (stereo not given) gave a melting point of 72 to 74 °C. Regarding `CC(C)Oc1c(-c2ccc3c(c2)[C@@H](N2Cc4ccccc4C2=O)[C@H](O)C(C)(C)O3)c(=O)c1=O` (relative stereo), the melting point was over 250 °C.

For the compound `CS(=O)(=O)Nn1c(=O)[nH]c2cc(C(F)(F)F)c(-n3cnc(C#N)c3)cc2c1=O`, the melting point was 143 to 145 °C.

Turning to `CCCC(O)c1cc2c(=O)n(NS(C)(=O)=O)c(=O)[nH]c2cc1C(F)(F)F` (stereo not given), the melting point was 223 to 226 °C. The compound `O=C(CN1CCNCC1)Nc1ccccc1` showed a melting point of 71 to 72 °C. Consider `CC(C)c1cccc(C(C)C)c1NC(=O)N(Cc1ccccc1)[C@H]1CC[C@@H](c2ccccc2)CC1`, for which the melting point was 148 to 149 °C. The value for `Cc1ccccc1/C=C/c1nc(COc2ccc(CCCCn3ccnc3CCO)cc2)co1` was 91 to 93 °C; that for `O=c1[nH]c2ccc(S(=O)(=O)O)cc2[nH]c1=O` was over 300 °C.

Take `COC(=O)C(Oc1cc(OCc2ccnnc2)ccc1C#N)c1ccccc1Cl` (racemic): the melting point lay within 136 to 138 °C.

In the case of `O=C(Nc1cccc2[nH]ccc12)c1ccccc1OCC(O)CN1CCN(C(c2ccccc2)c2ccccc2)CC1` (stereo not given), the melting point is 170 °C.

In the case of `CCCCCCCCCCCCCCCCCCNC(=O)c1ccccc1N`, the melting point was 89 to 90 °C. Take `CC[C@H]1CN(c2c(F)cc3c(=O)c(C(=O)O)cn([C@@H]4C[C@@H]4F)c3c2OC)C[C@H]1N`: the melting point lay in the range of 217 to 219 °C. With `CC1(c2ccc([N+](=O)[O-])cc2)C(=O)Nc2cc(Cl)cc(Cl)c2C1=O` (stereo not given) the figure was 264 to 265 °C; with `CC(C)c1ccc(S(=O)(=O)NC(=O)C(Oc2cc(OCc3ccsc3)ccc2C#N)c2ccccc2)cc1` (racemic), 187 to 189 °C. `COc1cccc(Cc2nc3n(-c4c(Cl)cc(C=O)cc4Cl)[nH]c(C(C)C)c-3c(=O)n2)c1` yielded a melting point of 212 to 214 °C. `CC1(C)CCC(C)(C)c2cc(-c3nc4ccc(C(=O)O)cc4s3)ccc21` registered a melting point of 292 to 293 °C.

Compound `CNc1nc(Nc2ccc(Cl)c(Cl)c2)ncc1NP(C)(C)=O` displayed a melting point of 258 °C. Consider `O=C(c1ccc(F)cc1)C1CCN(CCn2c(=O)c3ccccc3n(-c3ccccc3)c2=O)CC1`, for which the melting point worked out at 166 °C. `O=S(O)c1ccc2c(c1)CCCC2` registered a melting point of 82 to 85 °C. The compound `COCOc1cccc(ON=C(C)C)c1C#N` showed a melting point of 62 to 64 °C.

`Cc1cc(CSCCNC(=C[N+](=O)[O-])NCC(O)c2cccc(Br)c2)sc1CN(C)C` (stereo not given): the melting point fell in the range of 104 to 106 °C.

Turning to `CC12C=CC(=O)C=C1CCC1C3CC4OCOC4(C(=O)CO)C3(C)CC(O)C12F` (stereo not given), the melting point is 262 °C. In turn, `CCN(CCO)Cc1cc(Nc2nc(Nc3ccc4c(c3OC)CCC(N3CCOCC3)CC4)ncc2Cl)ccc1F` (stereo not given) came in with a melting point of 81 to 83 °C.

The compound `O=C(CBr)Nc1ccc(C(=O)O)cc1` showed a melting point of 241 to 243 °C. As for `CC1(c2ccc(S(C)(=O)=O)cc2)OC=C(Br)C(=O)C1Oc1ccc(F)cc1F` (stereo not given), the melting point turned out to be 230 °C.

The compound `COC(=O)c1ccc(NC(=O)c2ccc(Br)nc2)nc1` returned a melting point of 173 to 174 °C. The value for `CCc1c(S(=O)(=O)c2ccc(=O)[nH]n2)oc2ccc(Cl)cc12` was 209 to 210 °C; that for `CCC1SC(NC)=NN1C(=O)C(C)(C)C` (stereo not given) was 78.5 to 80 °C; that for `COCCOc1ccc(C=O)c(OCc2ccccc2)c1` was 67.5 to 68 °C. `Oc1ccc(C(c2ccc(O)cc2)c2ccccc2CN2CCN(c3ccccc3Cl)CC2)cc1` returned a melting point of 149 to 151 °C. `Cc1c(C#N)sc2nc(-c3ccc4c(c3)OCO4)nc(N(C)CCO)c12` came in with a melting point of 195 to 197 °C. `O=C1NCCNC1c1cn(Cc2ccccc2Cl)c2ccccc12` (stereo not given) yielded a melting point of 181 °C.

In turn, `NC(=O)[C@H]1CN(c2ccc(C3=NNC(=O)CS3)c(F)c2)C(=O)O1` showed a melting point of 249 to 251 °C. Compound `O=C(c1cccc(Br)c1)C(Br)C(Br)c1ccc(Br)cc1` (stereo not given) gave a melting point of 158 °C. With `CC1=C(C#N)C(c2cccc3ncc(-c4ccccc4)cc23)C(C(=O)OC(C)C)=C(N)N1` (stereo not given) the figure was 227 to 229 °C. With `COc1cc(Nc2nccc(-c3ccc(N4CCC(O)CC4)nc3)n2)cc(OC)c1OC`, the melting point was 127 to 128 °C. With `CCOC(=O)c1cnc2ccc(CC)cc2c1O` the figure was over 260 °C; with `CCOC(=O)C(C(=O)OCC)C(N)c1ccc([N+](=O)[O-])cc1C(N)C(C(=O)OCC)C(=O)OCC` (stereo not given), 148 to 151 °C; with `COC(=O)c1ccc(NCCNC(=O)C2Cc3ccccc3N2S(=O)(=O)c2ccc(-c3cc(C(F)(F)F)ccc3Cl)cc2)cc1` (stereo not given), 96 to 98 °C. Consider `COC(=O)c1sc(C)c(Cl)c1O`, for which the melting point lay within 105 to 107 °C.

The compound `CCc1cc(C#N)c(=O)[nH]c1C` displayed a melting point of 237 to 240 °C.

`COCc1cc(OC)c(-c2ccc(C[C@H](NC(=O)c3c(F)cccc3Cl)C(=O)O)cc2)c(OC)c1`: the melting point was 170 to 175 °C. Compound `CC(C)Oc1ccccc1-c1cc(=O)c2cc(C#N)ccc2o1` gave a melting point of 172 to 175 °C. On to `Cc1scc(CO)c1N`, for which the melting point fell in the range of 70 to 71 °C. Take `CCCC(=O)c1cnc2cc(CO)ccc2c1Nc1ccccc1C`: the melting point was in the range of 176 to 178 °C.

`CCc1n[nH]c(CC)c1Oc1cccc(C#N)c1` came in with a melting point of 81 to 84 °C. With `COc1nc(C)nc(NC(=O)NS(=O)(=O)c2c(C)cccc2OCCF)n1` the figure was 161 °C; with `O=c1ccsn1CNc1ccc(Cl)c(Cl)c1`, 120 to 122 °C. With `c1cnn(Cc2ccc3c(c2)Cc2c(-c4ccsc4)n[nH]c2-3)n1` the figure was 238 to 241 °C; with `Cc1sc(N2C(=O)c3ccccc3C2=O)c(C(=O)c2ccc(Cl)cc2)c1CN1CCN(c2ccc(F)cc2)CC1`, 110 to 112 °C. With `Cc1cc2cnc(OCCc3ccc(OC(C)(C)C)cc3)nc2o1`, the melting point was found to be 75 °C.

Turning to `Cn1nc(S(C)=O)c(=O)c2ccccc21` (stereo not given), the melting point lay within 187 to 189 °C. `CC1=Cc2ccncc2C(C)(NS(=O)(=O)c2ccc(C)cc2)c2ccccc21` (stereo not given) showed a melting point of 174 to 177 °C. For `Cc1c(O)cccc1NC(=O)CC12CC3CC(CC(C3)C1)C2`, the melting point came to 211 °C. In turn, `O=C1COC(CCOC(=O)c2ccccc2)(c2ccc(F)c(F)c2)CN1` (stereo not given) returned a melting point of 92 °C. For the compound `O=C1NC(Cc2ccc(OCc3ccccc3)cn2)C(=O)NC1Cc1ccc(F)cc1` (stereo not given), the melting point lay within 220 to 222 °C. Regarding `c1cnc2c(c1)ncn2CCCCc1nnnn1C1CCCCC1`, the melting point fell in the range of 94 to 95 °C. `CCOC(=O)c1cc(=O)c2cccc(NC(=O)c3ccc4c(c3)CC(COCc3ccccc3)O4)c2o1` (stereo not given) displayed a melting point of 166 to 168 °C. Take `NC(=O)NN=Cc1ccc(OC2CCCCC2)cc1`: the melting point lay within 215 to 217 °C.

By melting point is commonly meant the temperature of the solid-liquid transition.
